Assay results published in US10137110B2, “1-cyclohexyl-2-phenylaminobenzimidazoles as mIDH1 inhibitors for the treatment of tumors” (Bayer Pharma Aktiengesellschaft, priority 2014, dated 2018).

Experiments:
IDH1 R132H enzyme = IDH1 R132H enzyme (Homo sapiens (Human), UniProt O75874, R132H); assay: Mutant IDH1 R132H biochemical assay; conditions: NADPH consumption, luminescent readout; 1.5 nM enzyme, 250 μM α-KG, 1 μM NADPH, 30 minutes, 32° C.; test range 0.002-10 μM
Method: mIDH1 catalyzes the NADPH-dependent reduction of alpha-ketoglutarate (α-KG) to (2R)-2-hydroxyglutarate (2-HG). NADPH consumption was measured by luminescent readout.
The biochemical reactions were performed at 32° C. in 384-well plates using a reaction volume of 41 μl and the following assay buffer conditions: 50 mM Tris pH 7.5, 100 mM NaCl, 20 mM MgCl2, 0.05% BSA, 0.01% Brij, 1 μM NADPH, and 250 μM α-KG. […] Test compounds were used in a concentration range between 0.002 and 10 μM. The final DMSO concentration was 2.4%.
The reaction was incubated for 30 minutes, then 40 μl of detection mix (0.75 μg/ml Luciferase, 0.02 U/ml Oxidoreductase, 4 μg/ml FMN, 2 μl/ml Decanal/Ethanol, 50 mM Tris pH 7.5, 0.5% Glycerin, 0.01% Tween-20, 0.05% BSA) was added. Luminescence was measured on a luminescent reader (10 seconds measuring time, 1 second integration period, 30% sensitivity). The decrease in luminescence is proportional to mIDH1 activity. IC50 values are determined by interpolation from plots of relative luminescence versus inhibitor concentration.

[1] = target: mutated isocitrate dehydrogenase (mIDH) protein overexpressed in LN229 R132H cells (Homo sapiens (Human), UniProt O75874, R132H); assay: Mutant IDH1 cellular assay (2-HG in medium of LN229 R132H cells); type: cell-based; conditions: 24 hours, fluorescence readout
Chain of mutated isocitrate dehydrogenase (mIDH) protein overexpressed in LN229 R132H cells (O75874 whole entry R132H): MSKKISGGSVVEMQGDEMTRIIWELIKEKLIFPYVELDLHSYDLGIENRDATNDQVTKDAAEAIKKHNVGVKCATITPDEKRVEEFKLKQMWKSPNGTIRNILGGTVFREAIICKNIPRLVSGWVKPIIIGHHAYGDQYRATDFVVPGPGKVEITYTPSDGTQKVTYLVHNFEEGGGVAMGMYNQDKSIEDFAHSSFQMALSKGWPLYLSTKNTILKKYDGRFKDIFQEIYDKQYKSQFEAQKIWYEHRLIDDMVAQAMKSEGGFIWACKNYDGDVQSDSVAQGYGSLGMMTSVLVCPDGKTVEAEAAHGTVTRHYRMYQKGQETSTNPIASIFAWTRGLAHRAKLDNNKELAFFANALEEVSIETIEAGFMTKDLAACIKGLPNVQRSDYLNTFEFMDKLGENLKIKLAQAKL
Method: Mutant IDH1 Cellular Assay
Levels of (2R)-2-hydroxyglutarate (2HG) were measured in medium of a cell line with overexpression of mutated isocitrate dehydrogenase (mIDH) protein. mIDH catalyzes the NADPH-dependent reduction of alpha-ketoglutarate to 2-HG. Cells (LN229 R132H, Mohrenz et al., Apoptosis (2013) 18:1416-1425) were grown in DMEM containing 10% FCS. They were harvested by trypsin and seeded into 96-well plates. Cells were incubated overnight at 37° C. in 5% CO2. The next day test compounds were added to each cell well. The final concentration of DMSO was 0.1% and DMSO controls were included. The plates were then placed in an incubator for 24 hours.
2-HG was measured according to Balss et al. (Acta Neuropathol (2012) 124: 883-891). Briefly, HClO4 was added to each well and the plates were centrifuged. Aliquots are removed and incubated with hydroxyglutarate dehydrogenase (HGDH), diaphorase, NAD+, and resazurin. The conversion of resazurin to resorufin was detected by fluorescence spectroscopy at Ex 540 nm Em 600 nm. The increase in fluorescence is proportional to 2-HG production. IC50 values are determined by interpolation from plots of relative fluorescence vs inhibitor concentration.

Chain of IDH1 R132H enzyme (O75874 whole entry R132H): as above

Compound | IC50 (IDH1 R132H enzyme) [µM] | IC50 [1] [µM]
Cc1n[nH]c(C)c1-c1ccc2c(c1)nc(Nc1ccc(SC(F)(F)F)cc1)n2[C@H]1C[C@@H](C)CC(C)(C)C1 (stereo in doubt) [Example 2-10-2] | 0.14 | 3
C[C@H]1C[C@@H](n2c(Nc3ccc(OC(F)(F)F)cc3)nc3cc(-c4cn[nH]c4)ccc32)CC(C)(C)C1 (stereo in doubt) [Example 2-4] | 0.08 | 0.6
Cc1n[nH]cc1-c1ccc2c(c1)nc(Nc1ccc(OC(F)(F)F)cc1)n2[C@@H]1C[C@H](C)CC(C)(C)C1 (stereo in doubt) [Example 2-7] | 0.11 | 1.2
C[C@H]1C[C@@H](n2c(Nc3ccc(SC(F)(F)F)cc3)nc3cc(-c4ccn[nH]4)ccc32)CC(C)(C)C1 (stereo in doubt) [Example 2-22] | 0.77 | 2.5
Cc1n[nH]c(C)c1-c1ccc2c(c1)nc(Nc1ccc(C(F)(F)F)cc1)n2[C@H]1C[C@@H](C)CC(C)(C)C1 (stereo in doubt) [Example 2-24-2] | 0.14 | 7
Cc1n[nH]c(C)c1-c1ccc2c(c1)nc(Nc1ccc(OC(F)(F)F)cc1)n2[C@@H]1C[C@H](C)CC(C)(C)C1 (stereo in doubt) [Example 2-5] | 0.09 | 4
C[C@@H]1C[C@H](n2c(Nc3ccc(OC(F)(F)F)cc3)nc3cc(-c4cccc(C(=O)O)c4)ccc32)CC(C)(C)C1 (racemic) [Example 2-2, (±) 3-(2-{[4-(trifluoromethoxy)phenyl]amino}-1-[(cis)-3,3,5-trimethylcyclohexyl]-1H-benzimidazol-5-yl)benzoic acid] | 0.07 | 0.36
Cc1cc2c(cc1-c1c(C)n[nH]c1C)nc(Nc1ccc(OC(F)(F)F)cc1)n2C1CC(C)(C)CC(C)(C)C1 [Example 2-29, 5-(3,5-dimethyl-1H-pyrazol-4-yl)-6-methyl-1-(3,3,5,5-tetramethylcyclohexyl)-N-[4-(trifluoromethoxy)phenyl]-1H-benzimidazol-2-amine] | 4 | 2.7
Cc1noc(C)c1-c1ccc2c(c1)nc(Nc1ccc(C(F)(F)F)cc1)n2[C@H]1C[C@@H](C)CC(C)(C)C1 (stereo in doubt) [Example 2-23-2] | 0.18 | 10
CC1(C)CC(n2c(Nc3ccc(OC(F)(F)F)cc3)nc3cc(-c4nnn[nH]4)ccc32)CC(C)(C)C1 [Example 2-28, 1-(3,3,5,5-tetramethylcyclohexyl)-5-(1H-tetrazol-5-yl)-N-[4-(trifluoromethoxy)-phenyl]-1H-benzimidazol-2-amine] | 0.07 | 0.2
Cc1n[nH]c(C)c1-c1ccc2c(c1)nc(Nc1ccc(OC(F)(F)F)cc1)n2[C@H]1C[C@@H](C)CC(C)(C)C1 (stereo in doubt) [Example 2-5-2] | 1.54 | 1.5
Cc1cc(-c2ccc3c(c2)nc(Nc2ccc(OC(F)(F)F)cc2)n3[C@@H]2C[C@H](C)CC(C)(C)C2)n(C)n1 (stereo in doubt) [Example 2-12] | 0.1 | 8

More lines, in order of falling IC50 (IDH1 R132H enzyme), values ahead:

IC50 (IDH1 R132H enzyme) [µM] | IC50 [1] [µM] | Compound
1.9 | 10 | Cc1nn(C)c(C)c1-c1ccc2c(c1)nc(Nc1ccc(OC(F)(F)F)cc1)n2[C@@H]1C[C@H](C)CC(C)(C)C1 (stereo in doubt) [Example 2-19]
1.1 | 5 | C[C@H]1C[C@@H](n2c(Nc3ccc(OC(F)(F)F)cc3)nc3cc(-c4cnn(C)c4)ccc32)CC(C)(C)C1 (stereo in doubt) [Example 2-13]
0.21 | 2.8 | C[C@H]1C[C@@H](n2c(Nc3ccc(OC(F)(F)F)cc3)nc3cc(-c4cccc(C(N)=O)c4)ccc32)CC(C)(C)C1 (stereo in doubt) [Example 2-11]
0.18 | 2 | C[C@H]1C[C@@H](n2c(Nc3ccc(OC(F)(F)F)cc3)nc3cc(-c4cnoc4)ccc32)CC(C)(C)C1 (stereo in doubt) [Example 2-9]
0.13 | 2 | C[C@H]1C[C@@H](n2c(Nc3ccc(OC(F)(F)F)cc3)nc3cc(-c4ccn[nH]4)ccc32)CC(C)(C)C1 (stereo in doubt) [Example 2-8]
0.12 | 1.5 | Cc1nnc(-c2cc3nc(Nc4ccc(OC(F)(F)F)cc4)n(C4CC(C)(C)CC(C)(C)C4)c3cc2C)[nH]1 [Example 2-30, 6-methyl-5-(5-methyl-4H-1,2,4-triazol-3-yl)-1-(3,3,5,5-tetramethylcyclohexyl)-N-[4-(trifluoromethoxy)phenyl]-1H-benzimidazol-2-amine]
0.03 | 0.25 | Cc1cc2c(cc1-c1cc(O)no1)nc(Nc1ccc(OC(F)(F)F)cc1)n2C1CC(C)(C)CC(C)(C)C1 [Example 2-37, 5-[6-methyl-1-(3,3,5,5-tetramethylcyclohexyl)-2-{[4-(trifluoromethoxy)phenyl]amino}-1H-benzimidazol-5-yl]-1,2-oxazol-3-ol]
0.014 | 0.022 | Cc1cc2c(cc1C1OC(=O)NC1=O)nc(Nc1ccc(OC(F)(F)F)cc1)n2C1CC(C)(C)CC(C)(C)C1 (stereo not shown) [Example 2-36, 5-[6-methyl-1-(3,3,5,5-tetramethylcyclohexyl)-2-{[4-(trifluoromethoxy)phenyl]amino}-1H-benzimidazol-5-yl]-1,3-oxazolidine-2,4-dione]
